Oligonucleotides are written 5' to 3', each unit as a sugar letter and its base; * is a phosphorothioate linkage, no mark a phosphodiester; rarer units and linkages stand in square brackets, end groups in braces. Plain capitals give the bases only. k = constrained ethyl (cEt); [5mC] = 5-methylcytosine; d = 2'-deoxy (DNA)
What was measured:
AR mRNA [1] = experiment: Dose-dependent antisense inhibition of human AR in HuVEC cells (electroporation, qRT-PCR RTS3559, IC50); type: cell-based; conditions: HuVEC
In short: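 HuVEC cells dosed with antisense oligonucleotides by electroporation and treated approximately 16 hours. AR mRNA quantified by real-time qPCR with primer probe set RTS3559 and normalised to total RNA by RIBOGREEN; IC50 from dose-response.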

AR mRNA [2] = experiment: Antisense inhibition of human AR in HuVEC cells, single concentration (electroporation, qRT-PCR RTS3559); type: cell-based
In short: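 HuVEC cells electroporated with antisense oligonucleotides at a single concentration. AR mRNA quantified by qRT-PCR using human primer-probe set RTS3559 and normalised to total RNA content by RIBOGREEN.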

[3] = Table 30, electroporation, approximately 16 hours
[4] = Table 35, electroporation, approximately 16 hours
[5] = 500 nM ASO, electroporation, ~24 h, Table 1
[6] = Table 36, electroporation, approximately 16 hours
[7] = Table 34, electroporation, approximately 16 hours
[8] = Table 22, 500 nM oligonucleotide, electroporation, approximately 24 hours, relative to untreated control

583727 (antisense kG*kA*kT*dT*d[5mC]*dT*dG*dG*dA*dA*dA*dG*d[5mC]*kT*k[5mC]*k[5mC]) [compound 583727]
percent inhibition of AR, 46.9 nM (AR mRNA [1]; [3]): 18% | percent inhibition of AR, 187.5 nM (AR mRNA [1]; [3]): 49% | percent inhibition of AR, 750.0 nM (AR mRNA [1]; [3]): 70% | percent inhibition of AR, 3000.0 nM (AR mRNA [1]; [3]): 76% | IC50 (AR mRNA [1]; [3]): 290 nM | % inhibition (AR mRNA [2]; 500 nM ASO, ~24 h, Table 18): 40%

584166 (k[5mC]*kA*k[5mC]*dA*dT*d[5mC]*dA*dG*dA*dA*dG*dG*dA*kG*kT*kA; antisense) [compound 584166]
percent inhibition of AR, 46.9 nM (AR mRNA [1]; [4]): 34% | percent inhibition of AR, 187.5 nM (AR mRNA [1]; [4]): 52% | percent inhibition of AR, 750.0 nM (AR mRNA [1]; [4]): 84% | percent inhibition of AR, 3000.0 nM (AR mRNA [1]; [4]): 92% | IC50 (AR mRNA [1]; [4]): 100 nM | % inhibition (AR mRNA [2]; Table 24, 1,000 nM oligonucleotide, electroporation, approximately 24 hours, relative to untreated control): 89%

549379 (kG*k[5mC]*kT*d[5mC]*d[5mC]*d[5mC]*dG*d[5mC]*d[5mC]*dT*d[5mC]*dG*d[5mC]*k[5mC]*kG*k[5mC]; antisense) [compound 549379]
percent inhibition of AR (AR mRNA [1]; 55.6 nM, ~16 h, Table 3): 11% | percent inhibition of AR (AR mRNA [1]; 166.7 nM, ~16 h, Table 3): 51% | percent inhibition of AR (AR mRNA [1]; 500.0 nM, ~16 h, Table 3): 68% | percent inhibition of AR (AR mRNA [1]; 1500.0 nM, ~16 h, Table 3): 88% | IC50 (AR mRNA [1]; ~16 h, Table 3): 237 nM | % inhibition (AR mRNA [2]; [5]): 86%

583738 (antisense kG*kT*kT*d[5mC]*dT*dG*dG*dA*dT*d[5mC]*dA*d[5mC]*dT*kT*k[5mC]*kG) [compound 583738]
percent inhibition of AR, 46.9 nM (AR mRNA [1]; [3]): 16% | percent inhibition of AR, 187.5 nM (AR mRNA [1]; [3]): 40% | percent inhibition of AR, 750.0 nM (AR mRNA [1]; [3]): 56% | percent inhibition of AR, 3000.0 nM (AR mRNA [1]; [3]): 71% | IC50 (AR mRNA [1]; [3]): 510 nM | % inhibition (AR mRNA [2]; 500 nM ASO, ~24 h, Table 18): 36%

584242 (k[5mC]*k[5mC]*kA*dT*dT*dT*dG*dT*dG*d[5mC]*d[5mC]*dA*dA*kA*k[5mC]*k[5mC]; antisense) [compound 584242]
percent inhibition of AR, 46.9 nM (AR mRNA [1]; [6]): 12% | percent inhibition of AR, 187.5 nM (AR mRNA [1]; [6]): 38% | percent inhibition of AR, 750.0 nM (AR mRNA [1]; [6]): 66% | percent inhibition of AR, 3000.0 nM (AR mRNA [1]; [6]): 93% | IC50 (AR mRNA [1]; [6]): 270 nM | % inhibition (AR mRNA [2]; Table 25, 1,000 nM oligonucleotide, electroporation, approximately 24 hours, relative to untreated control): 62%

583932 (kT*k[5mC]*kT*d[5mC]*d[5mC]*dA*dG*d[5mC]*dT*dT*dG*dA*dT*kG*k[5mC]*kG; antisense) [compound 583932]
percent inhibition of AR, 46.9 nM (AR mRNA [1]; [7]): 9% | percent inhibition of AR, 187.5 nM (AR mRNA [1]; [7]): 35% | percent inhibition of AR, 750.0 nM (AR mRNA [1]; [7]): 64% | percent inhibition of AR, 3000.0 nM (AR mRNA [1]; [7]): 81% | IC50 (AR mRNA [1]; [7]): 380 nM | % inhibition (AR mRNA [2]; Table 21, 500 nM oligonucleotide, electroporation, approximately 24 hours, relative to untreated control): 39%

584006 (kA*k[5mC]*kA*d[5mC]*dA*dA*dG*dT*dG*dG*dG*dA*d[5mC]*kT*kG*kG; antisense) [compound 584006]
percent inhibition of AR, 46.9 nM (AR mRNA [1]; [7]): 21% | percent inhibition of AR, 187.5 nM (AR mRNA [1]; [7]): 26% | percent inhibition of AR, 750.0 nM (AR mRNA [1]; [7]): 59% | percent inhibition of AR, 3000.0 nM (AR mRNA [1]; [7]): 88% | IC50 (AR mRNA [1]; [7]): 350 nM | % inhibition (AR mRNA [2]; [8]): 33%

549338 (kG*kG*k[5mC]*dT*dG*dT*dG*dA*dT*dG*dA*dT*dG*k[5mC]*kG*kG; antisense) [compound 549338]
percent inhibition of AR (AR mRNA [1]; 55.6 nM, ~16 h, Table 4): 32% | percent inhibition of AR (AR mRNA [1]; 166.7 nM, ~16 h, Table 4): 47% | percent inhibition of AR (AR mRNA [1]; 500.0 nM, ~16 h, Table 4): 67% | percent inhibition of AR (AR mRNA [1]; 1500.0 nM, ~16 h, Table 4): 78% | IC50 (AR mRNA [1]; ~16 h, Table 4): 154 nM | % inhibition (AR mRNA [2]; [5]): 83%

584469 (kT*kT*kT*dG*dG*dT*dA*dA*d[5mC]*dA*dT*dT*dA*kG*kG*k[5mC]; antisense) [compound 584469]
percent inhibition of AR, 46.9 nM (AR mRNA [1]; [6]): 13% | percent inhibition of AR, 187.5 nM (AR mRNA [1]; [6]): 46% | percent inhibition of AR, 750.0 nM (AR mRNA [1]; [6]): 73% | percent inhibition of AR, 3000.0 nM (AR mRNA [1]; [6]): 89% | IC50 (AR mRNA [1]; [6]): 220 nM | % inhibition (AR mRNA [2]; Table 27, 1,000 nM oligonucleotide, electroporation, approximately 24 hours, relative to untreated control): 74% | % inhibition (AR mRNA [2]; Table 28, 1,000 nM oligonucleotide, electroporation, approximately 24 hours, relative to untreated control): 63%

584044 (k[5mC]*k[5mC]*k[5mC]*dT*dT*d[5mC]*dA*dG*d[5mC]*dG*dG*d[5mC]*dT*k[5mC]*kT*kT; antisense) [compound 584044]
percent inhibition of AR, 46.9 nM (AR mRNA [1]; [7]): 23% | percent inhibition of AR, 187.5 nM (AR mRNA [1]; [7]): 30% | percent inhibition of AR, 750.0 nM (AR mRNA [1]; [7]): 51% | percent inhibition of AR, 3000.0 nM (AR mRNA [1]; [7]): 78% | IC50 (AR mRNA [1]; [7]): 440 nM | % inhibition (AR mRNA [2]; [8]): 29%
